In ChEMBL document CHEMBL5380850, “Discovery of the First Raptor (Regulatory-Associated Protein of mTOR) Inhibitor as a New Type of Antiadipogenic Agent” (J Med Chem, 2023):
pIC50: −log10 of the molar value. Calls of active or inactive are those of the source. No cut-off for these calls is given here.

test system: 3T3-L1; assay: Anti-adipogenic activity against mouse 3T3-L1 cells assessed as decrease in triglyceride level at 1 uM by Oil Red O staining based spectroscopic analysis; assay type: functional; design: scale not given: the % may be the effect or the level left; details: not given

SMILES	Activity
C=C(C)[C@@]12OC3(c4ccccc4)O[C@@H]1[C@@H]1[C@@H]4O[C@]4(CO)[C@@H](O)[C@]4(O)C(=O)C(C)=C[C@H]4[C@@]1(O3)[C@H](C)[C@H]2OC(=O)c1ccccc1	>50%
C=C(C)[C@@]12OC3(c4ccccc4)O[C@@H]1[C@@H]1[C@@H]4O[C@]4(COC(=O)c4ccccc4)[C@@H](O)[C@]4(O)C(=O)C(C)=C[C@H]4[C@@]1(O3)[C@H](C)[C@H]2OC(=O)c1ccccc1	>50%
C=C(C)[C@@]12OC3(/C=C/C=C/CCCCC)O[C@@H]1[C@@H]1[C@@H]4O[C@]4(COC(C)=O)[C@@H](O)[C@]4(O)C(=O)C(C)=C[C@H]4[C@@]1(O3)[C@H](C)[C@H]2OC(=O)c1ccccc1	>50%
C=C(C)[C@@]12OC3(c4ccccc4)O[C@@H]1[C@@H]1[C@@H]4O[C@]4(CO)[C@@H](O)[C@]4(O)C(=O)C(C)=C[C@H]4[C@@]1(O3)[C@H](C)[C@H]2OC(=O)CCC	>50%
C=C(C)[C@@]12OC3(c4ccccc4)O[C@@H]1[C@@H]1[C@@H]4O[C@]4(COC(C)=O)[C@@H](O)[C@]4(O)C(=O)C(C)=C[C@H]4[C@@]1(O3)[C@H](C)[C@H]2OC(=O)c1ccccc1	>50%
C=C(C)[C@@]12OC3(c4ccccc4)O[C@@H]1[C@@H]1[C@@H]4O[C@]4(CO)[C@@H](O)[C@]4(O)C(=O)C(C)=C[C@H]4[C@@]1(O3)[C@H](C)[C@H]2OC(=O)CC	>50%
C=C(C)[C@@]12OC3(c4ccccc4)O[C@@H]1[C@@H]1[C@@H](Cl)[C@@](O)(CO)[C@@H](O)[C@]4(O)C(=O)C(C)=C[C@H]4[C@@]1(O3)[C@H](C)[C@H]2OC(C)=O	>50%
C=C(C)[C@@]12OC3(c4ccccc4)O[C@@H]1[C@@H]1[C@@H](Cl)[C@@](O)(COC(=O)c4ccccc4)[C@@H](O)[C@]4(O)C(=O)C(C)=C[C@H]4[C@@]1(O3)[C@H](C)[C@H]2OC(C)=O	>50%
C=C(C)[C@@]12OC3(/C=C/C=C/CCCCC)O[C@@H]1[C@@H]1[C@@H]4O[C@]4(CO)[C@@H](O)[C@]4(O)C(=O)C(C)=C[C@H]4[C@@]1(O3)[C@H](C)[C@H]2OC(=O)CCC	>50%
C=C(C)[C@@]12OC3(/C=C/C=C/CCCCC)O[C@@H]1[C@@H]1[C@@H]4O[C@]4(COC(C)=O)[C@@H](OC(C)=O)[C@]4(O)C(=O)C(C)=C[C@H]4[C@@]1(O3)[C@H](C)[C@H]2OC(C)=O	>50%
C=C(C)[C@@]12OC3(/C=C/C=C/CCCCC)O[C@@H]1[C@@H]1[C@@H]4O[C@]4(COC(C)=O)[C@@H](OC(C)=O)[C@]4(O)C(=O)C(C)=C[C@H]4[C@@]1(O3)[C@H](C)[C@H]2OC(=O)c1ccccc1	>50%
C=C(C)[C@@]12OC3(c4ccccc4)O[C@@H]1[C@@H]1[C@@H]4O[C@]4(CO)[C@@H](O)[C@]4(O)C(=O)[C@@H](C)C[C@H]4[C@@]1(O3)[C@H](C)[C@H]2OC(=O)c1ccccc1	>50%
C=C(C)[C@@]12OC3(/C=C/C=C/CCCCC)O[C@@H]1[C@@H]1[C@@H]4O[C@]4(CO)[C@@H](O)[C@]4(O)C(=O)C(C)=C[C@H]4[C@@]1(O3)[C@H](C)[C@H]2OC(C)=O	>50%
C=C(C)[C@@]12OC3(c4ccccc4)O[C@@H]1[C@@H]1[C@@H]4O[C@]4(COC(=O)c4ccccc4)[C@@H](O)[C@]4(O)C(=O)C(C)=C[C@H]4[C@@]1(O3)[C@H](C)[C@H]2OC(C)=O	>50%
C=C(C)[C@@]12OC3(c4ccccc4)O[C@@H]1[C@@H]1[C@@H]4O[C@]4(CO)[C@@H](O)[C@]4(O)C(=O)C(C)=C[C@H]4[C@@]1(O3)[C@H](C)[C@H]2OC(C)=O	>50%
C=C(C)[C@@]12OC3(/C=C/C=C/CCCCC)O[C@@H]1[C@@H]1[C@@H]4O[C@]4(COC(C)=O)[C@@H](O)[C@]4(O)C(=O)C(C)=C[C@H]4[C@@]1(O3)[C@H](C)[C@H]2OC(C)=O	>50%
C=C(C)[C@@]12OC3(c4ccccc4)O[C@@H]1[C@@H]1[C@@H]4O[C@]4(COC(C)=O)[C@@H](O)[C@]4(O)C(=O)C(C)=C[C@H]4[C@@]1(O3)[C@H](C)[C@H]2OC(C)=O	>50%
C=C(C)[C@@]12OC3(c4ccccc4)O[C@@H]1[C@@H]1[C@H](O)[C@](Cl)(CO)[C@@H](O)[C@]4(O)C(=O)C(C)=C[C@H]4[C@@]1(O3)[C@H](C)[C@H]2OC(=O)c1ccccc1	>50%
C=C(C)[C@@]12OC3(/C=C/C=C/CCCCC)O[C@@H]1[C@@H]1[C@@H]4O[C@]4(COC(=O)c4ccccc4)[C@@H](O)[C@]4(O)C(=O)C(C)=C[C@H]4[C@@]1(O3)[C@H](C)[C@H]2OC(C)=O	>50%
C=C(C)[C@@]12OC3(/C=C/C=C/CCCCC)O[C@@H]1[C@@H]1[C@@H]4O[C@]4(CO)[C@@H](O)[C@]4(O)C(=O)C(C)=C[C@H]4[C@@]1(O3)[C@H](C)[C@H]2OC(=O)c1ccccc1	>50%
C=C(C)[C@@]12OC3(c4ccccc4)O[C@@H]1[C@@H]1[C@@H](Cl)[C@@](O)(CO)[C@@H](O)[C@]4(O)C(=O)C(C)=C[C@H]4[C@@]1(O3)[C@H](C)[C@H]2OC(=O)c1ccccc1	>50%
C=C(C)[C@@]12OC3(c4ccccc4)O[C@@H]1[C@@H]1[C@H](O)[C@](Cl)(CO)[C@@H](O)[C@]4(O)C(=O)C(C)=C[C@H]4[C@@]1(O3)[C@H](C)[C@H]2OC(C)=O	>50%

test system: 3T3-L1; assay: Anti-adipogenic activity against mouse 3T3-L1 cells assessed as decrease in triglyceride level incubated for […] by Oil Red O staining based microscopic analysis; assay type: functional, cell-based; details: not given

SMILES	pIC50
C=C(C)[C@@]12OC3(c4ccccc4)O[C@@H]1[C@@H]1[C@H](O)[C@](Cl)(COC(=O)c4ccccc4)[C@@H](OC(=O)CCCCCNC(=O)CCCC[C@@H]4SC[C@@H]5NC(=O)N[C@@H]54)[C@]4(O)C(=O)C(C)=C[C@H]4[C@@]1(O3)[C@H](C)[C@H]2OC(C)=O	5.98

molecular target: Regulatory-associated protein of mTOR (Mus musculus) (UniProt Q8K4Q0); assay: Binding affinity to Raptor in mouse 3T3-L1 cells at 1 to 10 uM incubated overnight by pull-down assay; details: dose 1-10 µM
Sequence (Q8K4Q0 whole entry, looked up): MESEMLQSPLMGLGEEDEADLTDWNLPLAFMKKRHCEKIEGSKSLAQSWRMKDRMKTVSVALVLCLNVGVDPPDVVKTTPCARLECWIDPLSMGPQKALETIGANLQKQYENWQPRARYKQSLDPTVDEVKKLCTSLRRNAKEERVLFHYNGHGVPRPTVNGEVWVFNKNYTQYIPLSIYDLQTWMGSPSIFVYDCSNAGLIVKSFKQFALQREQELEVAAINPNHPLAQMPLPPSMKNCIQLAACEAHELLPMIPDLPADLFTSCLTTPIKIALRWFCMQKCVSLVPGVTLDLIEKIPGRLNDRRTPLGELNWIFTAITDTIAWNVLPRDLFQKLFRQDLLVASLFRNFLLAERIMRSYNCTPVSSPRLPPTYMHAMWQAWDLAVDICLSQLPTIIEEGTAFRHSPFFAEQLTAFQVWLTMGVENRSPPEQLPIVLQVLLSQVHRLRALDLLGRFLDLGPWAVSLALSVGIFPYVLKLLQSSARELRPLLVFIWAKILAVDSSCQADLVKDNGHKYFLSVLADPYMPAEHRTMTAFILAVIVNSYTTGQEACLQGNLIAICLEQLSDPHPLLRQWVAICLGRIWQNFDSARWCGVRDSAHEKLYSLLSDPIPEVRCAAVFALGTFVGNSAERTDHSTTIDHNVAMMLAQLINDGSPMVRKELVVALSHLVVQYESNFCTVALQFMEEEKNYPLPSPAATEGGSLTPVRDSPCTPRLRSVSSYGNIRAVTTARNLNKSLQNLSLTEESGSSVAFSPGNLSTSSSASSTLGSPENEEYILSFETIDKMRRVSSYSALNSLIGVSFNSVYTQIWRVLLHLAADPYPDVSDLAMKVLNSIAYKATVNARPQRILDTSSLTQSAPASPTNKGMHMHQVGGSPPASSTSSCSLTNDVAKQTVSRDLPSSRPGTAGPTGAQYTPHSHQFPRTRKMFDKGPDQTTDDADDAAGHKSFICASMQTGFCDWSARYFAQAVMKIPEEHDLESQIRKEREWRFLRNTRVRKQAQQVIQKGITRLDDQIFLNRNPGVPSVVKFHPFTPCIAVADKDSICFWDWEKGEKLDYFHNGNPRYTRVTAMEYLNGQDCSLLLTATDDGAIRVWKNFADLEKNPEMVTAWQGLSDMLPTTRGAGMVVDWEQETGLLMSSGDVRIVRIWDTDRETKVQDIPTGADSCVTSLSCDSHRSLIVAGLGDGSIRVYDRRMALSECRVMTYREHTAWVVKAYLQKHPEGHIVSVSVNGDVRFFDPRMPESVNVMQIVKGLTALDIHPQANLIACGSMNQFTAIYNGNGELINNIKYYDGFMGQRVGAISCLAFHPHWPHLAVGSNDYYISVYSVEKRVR

SMILES	Activity
C=C(C)[C@@]12OC3(c4ccccc4)O[C@@H]1[C@@H]1[C@H](O)[C@](Cl)(COC(=O)c4ccccc4)[C@@H](OC(=O)CCCCCNC(=O)CCCC[C@@H]4SC[C@@H]5NC(=O)N[C@@H]54)[C@]4(O)C(=O)C(C)=C[C@H]4[C@@]1(O3)[C@H](C)[C@H]2OC(C)=O	Active
